Source: article PMC4991342 (Virulence, 2016)
pIC50: −log10 of the molar value.

Assays:
[1] = tested on: mouse lymphoma L5178Y/TK^+/− cells (clone 3.7.2C); assay: In vitro mammalian cell gene mutation test; assay type: cell-based; settings: 4 h without S9-mix
[2] = molecular target: recombinant P. falciparum DXP reductoisomerase; settings: read-out: IC50 for recombinant P. falciparum DXP reductoisomerase; cited from earlier work
[3] = tested on: acute urinary tract infections; settings: 70 patients with acute urinary tract infections; no details published; cited from earlier work
P. falciparum malaria = settings: oral monotherapy; clinical phase II; cited from earlier work

Row | Structure (SMILES) | MF (mutant frequency) ([1]; MMS 10 µg/ml (positive control), relevant increase) | mean MF compared to the negative controls ([1]; MMS 10 µg/ml) [%] | pIC50 [2] | antibacterial efficacy [3] | recrudescence (P. falciparum malaria)
1 | COS(C)(=O)=O [MMS, methyl methanesulfonate] | 475.5 × 10^−6 | 626 |  |  | 
2 | O=CN(O)CCCP(=O)(O)O [fosmidomycin] |  |  | 7.49 | strong antibacterial efficacy | high rate of recrudescent infections
